Source: article PMC4151706 (Journal of the American Chemical Society, 2014)

Target: HIV-1 protease WT subtype C (Human immunodeficiency virus type 1 group M subtype C, UniProt O12158)
Details: protease variant subtype C

HIV-1 protease WT subtype C, sequence (O12158 485-583): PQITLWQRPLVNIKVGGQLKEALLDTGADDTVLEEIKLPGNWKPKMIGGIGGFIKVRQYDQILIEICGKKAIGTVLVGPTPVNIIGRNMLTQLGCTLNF

CC(C)CN(C[C@@H](O)[C@H](Cc1ccccc1)NC(=O)O[C@H]1CO[C@H]2OCC[C@H]21)S(=O)(=O)c1ccc(N)cc1 [DRV, Darunavir]
Ki: 5 ± 2 pM
